In patent US12612407B2, “Imidazo[2,1-f][1,2,4]triazin-4-amine derivatives as TLR7 agonist” (BEIGENE, LTD., priority 2020, dated 2026):

Molecular target: T1, human TLR7 (Homo sapiens, UniProt Q9NYK1)
T1 construct: host or cells: HEK293 (HEK-Blue hTLR7)
T1 sequence (Q9NYK1 27-1049): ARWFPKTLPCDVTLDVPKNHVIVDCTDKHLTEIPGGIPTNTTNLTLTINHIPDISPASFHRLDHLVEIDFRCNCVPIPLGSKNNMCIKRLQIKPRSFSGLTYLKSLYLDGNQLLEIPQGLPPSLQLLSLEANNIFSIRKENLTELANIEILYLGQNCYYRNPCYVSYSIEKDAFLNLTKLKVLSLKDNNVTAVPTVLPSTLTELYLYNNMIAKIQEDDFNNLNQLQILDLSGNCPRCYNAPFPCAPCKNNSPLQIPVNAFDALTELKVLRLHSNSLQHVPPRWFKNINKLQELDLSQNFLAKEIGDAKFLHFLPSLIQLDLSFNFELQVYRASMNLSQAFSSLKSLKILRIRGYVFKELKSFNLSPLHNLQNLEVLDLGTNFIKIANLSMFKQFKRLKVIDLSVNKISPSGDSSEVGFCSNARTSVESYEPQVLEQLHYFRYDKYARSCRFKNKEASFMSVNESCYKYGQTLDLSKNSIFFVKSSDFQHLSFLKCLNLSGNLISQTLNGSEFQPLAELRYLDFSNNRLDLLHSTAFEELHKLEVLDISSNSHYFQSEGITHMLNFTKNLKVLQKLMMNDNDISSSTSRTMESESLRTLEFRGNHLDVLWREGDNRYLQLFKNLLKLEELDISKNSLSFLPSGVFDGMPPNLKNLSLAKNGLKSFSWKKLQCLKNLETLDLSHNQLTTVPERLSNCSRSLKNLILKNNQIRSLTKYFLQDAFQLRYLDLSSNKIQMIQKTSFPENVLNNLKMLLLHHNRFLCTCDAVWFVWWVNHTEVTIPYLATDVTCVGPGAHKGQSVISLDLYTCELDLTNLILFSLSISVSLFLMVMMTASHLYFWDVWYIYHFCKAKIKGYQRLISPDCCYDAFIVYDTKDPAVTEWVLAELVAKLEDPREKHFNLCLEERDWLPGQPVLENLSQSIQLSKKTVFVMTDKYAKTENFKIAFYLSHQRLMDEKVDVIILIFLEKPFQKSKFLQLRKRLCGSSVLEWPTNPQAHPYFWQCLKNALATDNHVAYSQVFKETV
Assay: HEK293-Blue hTLR7 Reporter Assay (QUANTI-BLUE, SEAP readout)
Format: cell-based
Conditions: HEK-Blue-hTLR7 cells, 24 hrs treatment, Table 1, B1-B232
Experimental: HEK293-Blue hTLR7 Reporter Assay: HEK-Blue-hTLR7 cell line (Invivogen, Cat. No. hkb-htlr7) was designed so that the expression of the secreted embryonic alkaline phosphatase (SEAP) was induced by activating NF-κ and AP-1 via stimulating human TLR7 with TLR7 agonists. HEK-Blue-hTLR7 cells were seeded at a density of 4×10^4 cells/well in a volume of 180 μL in a 96-well plate in DMEM (Cat. No. 11965-092) supplemented with 10% (v/v) heat-inactivated fetal bovine serum (FBS) (Gibco, 10099-1441), 100 U/ml penicillin and 100 μg/ml streptomycin (Gibco, 15140122) containing 50 U/mL penicillin, […] and 10% (v/v) heat-inactivated fetal bovine serum. The cells were settled for 5 hrs, then treated with increasing amounts of tested compounds at 37° C. for 24 hrs. Then 20 μL of the supernatant from each well was incubated with 180 μL Quanti-blue substrate solution at 37° C. for 10-30 mins before the activity of the SEAP was determined at 620-655 nm using a spectrophotometer. The EC50 value for each compound was calculated with GraphPad Prism software using the sigmoidal dose-response function.

With CCCCOc1nc(N)c2ncc(Cc3ccc(N4CCNCC4)c(C)c3)n2n1 [Compound B36, 2-butoxy-7-(3-methyl-4-(piperazin-1-yl)benzyl)imidazo[2,1-f][1,2,4]triazin-4-amine] as the molecule, how does the EC50 read?
Its EC50 is 182 nM.

CCCCOc1nc(N)c2ncc(Cc3cnc(N4CCN(C(=O)CCN(C)C)CC4)c(C)c3)n2n1 [Compound B37, 1-(4-(5-((4-amino-2-butoxyimidazo[2,1-f][1,2,4]triazin-7-yl)methyl)-3-methylpyridin-2-yl)piperazin-1-yl)-3-(dimethylamino)propan-1-one] was tested. Which EC50 did it give?
Its EC50 is 148 nM.

CCCCOc1nc(N)c2ncc(Cc3cnc(N4CC5CCCCC5C4)c(C)c3)n2n1 (centres unmarked) [Compound B38, 2-butoxy-7-((5-methyl-6-(octahydro-2H-isoindol-2-yl)pyridin-3-yl)methyl)imidazo[2,1-f][1,2,4]triazin-4-amine] was tested. Which EC50 did it give?
The EC50 was > 10000 nM.

How did the EC50 turn out when CCCCOc1nc(N)c2ncc(Cc3cnc(N4CCCNCC4)c(C)c3)n2n1 [Compound B39, 7-((6-(1,4-diazepan-1-yl)-5-methylpyridin-3-yl)methyl)-2-butoxyimidazo[2,1-f][1,2,4]triazin-4-amine] was run?
Its EC50 is 465 nM.

CCCCOc1nc(N)c2ncc(Cc3cnc(N4CCN(C(=O)CN5CCNCC5)CC4)c(C)c3)n2n1 [Compound B40, 1-(4-(5-((4-amino-2-butoxyimidazo[2,1-f][1,2,4]triazin-7-yl)methyl)-3-methylpyridin-2-yl)piperazin-1-yl)-2-(piperazin-1-yl)ethan-1-one] was tested. Which EC50 did it give?
Its EC50 is 908 nM.

How did the EC50 turn out when CCCCOc1nc(N)c2ncc(Cc3cnc(N4CCN(C(=O)C5CNCCN5)CC4)c(C)c3)n2n1 (centres unmarked) [Compound B41, (4-(5-((4-amino-2-butoxyimidazo[2,1-f][1,2,4]triazin-7-yl)methyl)-3-methylpyridin-2-yl)piperazin-1-yl)(piperazin-2-yl)methanone] was run?
The EC50 was 600 nM.

For Cc1cc(Cc2cnc3c(N)nc(OCCn4ccnc4)nn23)cnc1N1CCNCC1 [Compound B42, 2-(2-(1H-imidazol-1-yl)ethoxy)-7-((5-methyl-6-(piperazin-1-yl)pyridin-3-yl)methyl)imidazo[2,1-f][1,2,4]triazin-4-amine], which EC50 is on record?
Its EC50 is > 10000 nM.

With CCCCCCCCOc1nc(N)c2ncc(Cc3cnc(N4CCNCC4)c(C)c3)n2n1 [Compound B43, 7-((5-methyl-6-(piperazin-1-yl)pyridin-3-yl)methyl)-2-(octyloxy)imidazo[2,1-f][1,2,4]triazin-4-amine] as the molecule, how does the EC50 read?
Its EC50 is > 10000 nM.

For C=CC(=O)N1CCN(c2ncc(Cc3cnc4c(N)nc(OCCCC)nn34)cc2C)CC1 [Compound B44, 1-(4-(5-((4-amino-2-butoxyimidazo[2,1-f][1,2,4]triazin-7-yl)methyl)-3-methylpyridin-2-yl)piperazin-1-yl)prop-2-en-1-one], which EC50 is on record?
The EC50 was 6660 nM.

How did the EC50 turn out when CCCCOc1nc(N)c2ncc(Cc3ccc(N4CCNCC4)c(OC)c3)n2n1 [Compound B45, 2-butoxy-7-(3-methoxy-4-(piperazin-1-yl)benzyl)imidazo[2,1-f][1,2,4]triazin-4-amine] was run?
The EC50 was 418 nM.

With CCCCOc1nc(N)c2ncc(Cc3ccc(N4CCNCC4)c(OC(C)C)c3)n2n1 [Compound B46, 2-butoxy-7-(3-isopropoxy-4-(piperazin-1-yl)benzyl)imidazo[2,1-f][1,2,4]triazin-4-amine] as the molecule, how does the EC50 read?
Its EC50 is 960 nM.

How did the EC50 turn out when CCCCOc1nc(N)c2ncc(Cc3cc(C)c(C4CCNCC4)cn3)n2n1 [Compound B47, 2-butoxy-7-((4-methyl-5-(piperidin-4-yl)pyridin-2-yl)methyl)imidazo[2,1-f][1,2,4]triazin-4-amine] was run?
Its EC50 is 462 nM.

How did the EC50 turn out when CCCCOc1nc(N)c2ncc(Cc3cnc(N4CCNCC4)cc3C)n2n1 [Compound B48, 2-butoxy-7-((4-methyl-6-(piperazin-1-yl)pyridin-3-yl)methyl)imidazo[2,1-f][1,2,4]triazin-4-amine] was run?
Its EC50 is 4770 nM.

How did the EC50 turn out when CCCCOc1nc(N)c2ncc(Cc3cnc(N4CCN(C(=O)CCCN(C)C)CC4)c(C)c3)n2n1 [Compound B49, 1-(4-(5-((4-amino-2-butoxyimidazo[2,1-f][1,2,4]triazin-7-yl)methyl)-3-methylpyridin-2-yl)piperazin-1-yl)-4-(dimethylamino)butan-1-one] was run?
The EC50 was 124 nM.
